Test results reported in the CheMixHub ionic liquid set.
± gives the uncertainty stated by the source.

Assay: xn = mol fraction of the nth substance listed
Conditions: 101 kPa

In the case of `CCCCCCCCCCCCCC[n+]1ccccc1.O=C([O-])C(O)c1ccccc1` + NCC(=O)NCC(=O)O + O, the electrical conductivity (293.15 K, x1 = 5.26e-06, x2 = 0.0009002) is reported as 0.00276 ± 0.00066 S/m, the electrical conductivity (293.15 K, x1 = 6.01e-06, x2 = 0.001799) is reported as 0.00408 ± 0.0007 S/m and the electrical conductivity (293.15 K, x1 = 6.85e-06, x2 = 0) is reported as 0.00248 ± 0.00074 S/m. The electrical conductivity (293.15 K, x1 = 9.97e-06, x2 = 0.0009002) was 0.00403 ± 0.00072 S/m, the electrical conductivity (293.15 K, x1 = 1.185e-05, x2 = 0.001799) was 0.00561 ± 0.00081 S/m and the electrical conductivity (293.15 K, x1 = 1.424e-05, x2 = 0) was 0.00472 ± 0.00079 S/m. For the same compound, the electrical conductivity (293.15 K, x1 = 1.486e-05, x2 = 0.0009002) was 0.0054 ± 0.0008 S/m, the electrical conductivity (293.15 K, x1 = 1.713e-05, x2 = 0.001799) was 0.00703 ± 0.00091 S/m and the electrical conductivity (293.15 K, x1 = 2.084e-05, x2 = 0.0009002) was 0.00697 ± 0.00092 S/m. It also gave an electrical conductivity (293.15 K, x1 = 2.126e-05, x2 = 0) of 0.00671 ± 0.0009 S/m, an electrical conductivity (293.15 K, x1 = 2.26e-05, x2 = 0.001799) of 0.0085 ± 0.001 S/m and an electrical conductivity (293.15 K, x1 = 2.537e-05, x2 = 0.0009002) of 0.0082 ± 0.001 S/m. It also gave an electrical conductivity (293.15 K, x1 = 2.788e-05, x2 = 0.001799) of 0.0098 ± 0.0011 S/m, an electrical conductivity (293.15 K, x1 = 2.811e-05, x2 = 0) of 0.0086 ± 0.001 S/m and an electrical conductivity (293.15 K, x1 = 3.117e-05, x2 = 0.0009002) of 0.0097 ± 0.0011 S/m. It also gave an electrical conductivity (293.15 K, x1 = 3.335e-05, x2 = 0.001799) of 0.0111 ± 0.0012 S/m, an electrical conductivity (293.15 K, x1 = 3.46e-05, x2 = 0) of 0.0103 ± 0.0011 S/m and an electrical conductivity (293.15 K, x1 = 3.679e-05, x2 = 0.0009002) of 0.011 ± 0.0012 S/m. For the same compound, the electrical conductivity (293.15 K, x1 = 3.864e-05, x2 = 0.001799) was 0.0122 ± 0.0013 S/m, the electrical conductivity (293.15 K, x1 = 4.108e-05, x2 = 0) was 0.0117 ± 0.0012 S/m and the electrical conductivity (293.15 K, x1 = 4.386e-05, x2 = 0.0009001) was 0.0123 ± 0.0013 S/m. The electrical conductivity (293.15 K, x1 = 4.574e-05, x2 = 0.001799) was 0.0134 ± 0.0014 S/m, the electrical conductivity (293.15 K, x1 = 4.811e-05, x2 = 0) was 0.0129 ± 0.0013 S/m and the electrical conductivity (293.15 K, x1 = 5.11e-05, x2 = 0.0009001) was 0.0133 ± 0.0014 S/m. For the same compound, the electrical conductivity (293.15 K, x1 = 5.321e-05, x2 = 0.001799) was 0.0145 ± 0.0015 S/m, the electrical conductivity (293.15 K, x1 = 5.388e-05, x2 = 0) was 0.0137 ± 0.0014 S/m and the electrical conductivity (293.15 K, x1 = 5.781e-05, x2 = 0.0009001) was 0.0143 ± 0.0015 S/m. The electrical conductivity (293.15 K, x1 = 5.982e-05, x2 = 0) was 0.0145 ± 0.0015 S/m, the electrical conductivity (293.15 K, x1 = 6.069e-05, x2 = 0.001799) was 0.0155 ± 0.0016 S/m and the electrical conductivity (293.15 K, x1 = 6.433e-05, x2 = 0.0009001) was 0.0152 ± 0.0015 S/m. For the same compound, the electrical conductivity (293.15 K, x1 = 6.559e-05, x2 = 0) was 0.0153 ± 0.0016 S/m, the electrical conductivity (293.15 K, x1 = 6.816e-05, x2 = 0.001799) was 0.0165 ± 0.0017 S/m and the electrical conductivity (293.15 K, x1 = 7.081e-05, x2 = 0) was 0.016 ± 0.0016 S/m. For the same compound, the electrical conductivity (293.15 K, x1 = 7.104e-05, x2 = 0.0009001) was 0.0161 ± 0.0016 S/m, the electrical conductivity (293.15 K, x1 = 7.454e-05, x2 = 0.001799) was 0.0173 ± 0.0018 S/m and the electrical conductivity (293.15 K, x1 = 7.604e-05, x2 = 0) was 0.0167 ± 0.0017 S/m. It also gave an electrical conductivity (293.15 K, x1 = 7.81e-05, x2 = 0.0009001) of 0.0171 ± 0.0018 S/m, an electrical conductivity (293.15 K, x1 = 8.072e-05, x2 = 0) of 0.0173 ± 0.0018 S/m and an electrical conductivity (293.15 K, x1 = 8.128e-05, x2 = 0.001799) of 0.0182 ± 0.0019 S/m. It also gave an electrical conductivity (298.15 K, x1 = 5.26e-06, x2 = 0.0009002) of 0.00323 ± 0.00075 S/m, an electrical conductivity (298.15 K, x1 = 6.01e-06, x2 = 0.001799) of 0.00487 ± 0.0008 S/m and an electrical conductivity (298.15 K, x1 = 6.85e-06, x2 = 0) of 0.00278 ± 0.00083 S/m. For the same compound, the electrical conductivity (298.15 K, x1 = 9.97e-06, x2 = 0.0009002) was 0.00465 ± 0.00081 S/m, the electrical conductivity (298.15 K, x1 = 1.185e-05, x2 = 0.001799) was 0.00655 ± 0.00092 S/m and the electrical conductivity (298.15 K, x1 = 1.424e-05, x2 = 0) was 0.00529 ± 0.00089 S/m. The electrical conductivity (298.15 K, x1 = 1.486e-05, x2 = 0.0009002) was 0.00621 ± 0.00092 S/m, the electrical conductivity (298.15 K, x1 = 1.713e-05, x2 = 0.001799) was 0.0082 ± 0.001 S/m and the electrical conductivity (298.15 K, x1 = 2.084e-05, x2 = 0.0009002) was 0.008 ± 0.001 S/m. It also gave an electrical conductivity (298.15 K, x1 = 2.126e-05, x2 = 0) of 0.0076 ± 0.001 S/m, an electrical conductivity (298.15 K, x1 = 2.26e-05, x2 = 0.001799) of 0.0098 ± 0.0012 S/m and an electrical conductivity (298.15 K, x1 = 2.537e-05, x2 = 0.0009002) of 0.0094 ± 0.0012 S/m. It also gave an electrical conductivity (298.15 K, x1 = 2.788e-05, x2 = 0.001799) of 0.0113 ± 0.0013 S/m, an electrical conductivity (298.15 K, x1 = 2.811e-05, x2 = 0) of 0.0097 ± 0.0012 S/m and an electrical conductivity (298.15 K, x1 = 3.117e-05, x2 = 0.0009002) of 0.0111 ± 0.0013 S/m. The electrical conductivity (298.15 K, x1 = 3.335e-05, x2 = 0.001799) was 0.0127 ± 0.0014 S/m, the electrical conductivity (298.15 K, x1 = 3.46e-05, x2 = 0) was 0.0116 ± 0.0013 S/m and the electrical conductivity (298.15 K, x1 = 3.679e-05, x2 = 0.0009002) was 0.0125 ± 0.0014 S/m. For the same compound, the electrical conductivity (298.15 K, x1 = 3.864e-05, x2 = 0.001799) was 0.014 ± 0.0015 S/m, the electrical conductivity (298.15 K, x1 = 4.108e-05, x2 = 0) was 0.0131 ± 0.0014 S/m and the electrical conductivity (298.15 K, x1 = 4.386e-05, x2 = 0.0009001) was 0.014 ± 0.0014 S/m. The electrical conductivity (298.15 K, x1 = 4.574e-05, x2 = 0.001799) was 0.0153 ± 0.0016 S/m, the electrical conductivity (298.15 K, x1 = 4.811e-05, x2 = 0) was 0.0144 ± 0.0015 S/m and the electrical conductivity (298.15 K, x1 = 5.11e-05, x2 = 0.0009001) was 0.0151 ± 0.0015 S/m. The electrical conductivity (298.15 K, x1 = 5.321e-05, x2 = 0.001799) was 0.0165 ± 0.0017 S/m, the electrical conductivity (298.15 K, x1 = 5.388e-05, x2 = 0) was 0.0154 ± 0.0016 S/m and the electrical conductivity (298.15 K, x1 = 5.781e-05, x2 = 0.0009001) was 0.0162 ± 0.0017 S/m. It also gave an electrical conductivity (298.15 K, x1 = 5.982e-05, x2 = 0) of 0.0163 ± 0.0017 S/m, an electrical conductivity (298.15 K, x1 = 6.069e-05, x2 = 0.001799) of 0.0177 ± 0.0018 S/m and an electrical conductivity (298.15 K, x1 = 6.433e-05, x2 = 0.0009001) of 0.0172 ± 0.0018 S/m. For the same compound, the electrical conductivity (298.15 K, x1 = 6.559e-05, x2 = 0) was 0.0172 ± 0.0018 S/m, the electrical conductivity (298.15 K, x1 = 6.816e-05, x2 = 0.001799) was 0.0187 ± 0.0019 S/m and the electrical conductivity (298.15 K, x1 = 7.081e-05, x2 = 0) was 0.018 ± 0.0018 S/m. The electrical conductivity (298.15 K, x1 = 7.104e-05, x2 = 0.0009001) was 0.0182 ± 0.0019 S/m, the electrical conductivity (298.15 K, x1 = 7.454e-05, x2 = 0.001799) was 0.0197 ± 0.002 S/m and the electrical conductivity (298.15 K, x1 = 7.604e-05, x2 = 0) was 0.0187 ± 0.0019 S/m. The electrical conductivity (298.15 K, x1 = 7.81e-05, x2 = 0.0009001) was 0.0193 ± 0.002 S/m, the electrical conductivity (298.15 K, x1 = 8.072e-05, x2 = 0) was 0.0194 ± 0.002 S/m and the electrical conductivity (298.15 K, x1 = 8.128e-05, x2 = 0.001799) was 0.0207 ± 0.0021 S/m. For the same compound, the electrical conductivity (303.15 K, x1 = 5.26e-06, x2 = 0.0009002) was 0.00375 ± 0.00084 S/m, the electrical conductivity (303.15 K, x1 = 6.01e-06, x2 = 0.001799) was 0.00569 ± 0.00092 S/m and the electrical conductivity (303.15 K, x1 = 6.85e-06, x2 = 0) was 0.00309 ± 0.00092 S/m. For the same compound, the electrical conductivity (303.15 K, x1 = 9.97e-06, x2 = 0.0009002) was 0.00533 ± 0.00091 S/m, the electrical conductivity (303.15 K, x1 = 1.185e-05, x2 = 0.001799) was 0.0076 ± 0.001 S/m and the electrical conductivity (303.15 K, x1 = 1.424e-05, x2 = 0) was 0.00587 ± 0.00099 S/m. It also gave an electrical conductivity (303.15 K, x1 = 1.486e-05, x2 = 0.0009002) of 0.0071 ± 0.001 S/m, an electrical conductivity (303.15 K, x1 = 1.713e-05, x2 = 0.001799) of 0.0094 ± 0.0012 S/m and an electrical conductivity (303.15 K, x1 = 2.084e-05, x2 = 0.0009002) of 0.0091 ± 0.0012 S/m. It also gave an electrical conductivity (303.15 K, x1 = 2.126e-05, x2 = 0) of 0.0084 ± 0.0011 S/m, an electrical conductivity (303.15 K, x1 = 2.26e-05, x2 = 0.001799) of 0.0112 ± 0.0013 S/m and an electrical conductivity (303.15 K, x1 = 2.537e-05, x2 = 0.0009002) of 0.0106 ± 0.0013 S/m. It also gave an electrical conductivity (303.15 K, x1 = 2.788e-05, x2 = 0.001799) of 0.0129 ± 0.0014 S/m, an electrical conductivity (303.15 K, x1 = 2.811e-05, x2 = 0) of 0.0108 ± 0.0013 S/m and an electrical conductivity (303.15 K, x1 = 3.117e-05, x2 = 0.0009002) of 0.0125 ± 0.0014 S/m. It also gave an electrical conductivity (303.15 K, x1 = 3.335e-05, x2 = 0.001799) of 0.0145 ± 0.0016 S/m, an electrical conductivity (303.15 K, x1 = 3.46e-05, x2 = 0) of 0.0129 ± 0.0014 S/m and an electrical conductivity (303.15 K, x1 = 3.679e-05, x2 = 0.0009002) of 0.0141 ± 0.0015 S/m. It also gave an electrical conductivity (303.15 K, x1 = 3.864e-05, x2 = 0.001799) of 0.0159 ± 0.0017 S/m.
